Measured values from patent US11517754B2 (priority 2017, dated 2022).

Key:
[1] = system: catecholaminergic fibers projecting to pancreatic LN; parameters: species or system tdTomatoTH-Cre mice
[2] = system: OVA-specific CD8+ TCR transgenic T-cells; test: Pancreatic auto-antigen cross-presentation: proliferation of adoptively transferred OVA-specific CD8+ T cells in RIP-OVA mice under PNES; format: in vivo, RIP-OVA transgenic mice; conditions: PNES 450 μA, 10 Hz, 2 mn, 3 times/day; FIG. 3C

Compound | Field Action Potentials (FAP) peak amplitude after addition of TTX to the medium [1] | Effect of PNES on auto-antigen cross-presentation (T cell proliferation relative to sham) in mice treated with propranolol [2]
NC1=N[C@H](O)[C@H]2[C@H]3O[C@]4(O)O[C@@H]([C@@H](O)[C@@]2(N1)[C@@H]4O)[C@]3(O)CO [tetrodotoxin] | inhibited | –
CC(C)NCC(O)COc1cccc2ccccc12 (centres unmarked) [propranolol] | – | β-AR-dependent
